Assay results from patent publication US20210363254A1, “PHARMACEUTICAL COMBINATIONS” (Novartis AG, priority 2018, published 2021).
Where two headings read alike, the source gives them in different places.

Experiments:
[1] = system: human HSAX2655 (liposarcoma) PDX; experiment: TGI PK/PD modelling, human HSAX2655 (liposarcoma) PDX rat; type: in vivo
Procedure: Compartmental population PK modeling of NVP-HDM201 was used to estimate the individual average plasma concentration for Cycle 1 and to allow comparison with preclinical average concentration for tumor stasis derived by PK/PD tumor growth modeling. […] The dashed line at concentration of ≈19 ng/mL represents average tumor stasis determined from PK/PD modeling of preclinical data from a liposarcoma (HSAX2655) patient-derived xenograft rat model.

Colon 26 tumors = experiment: Anti-tumor activity in Colon 26 syngeneic tumor model (8020 Colon 26-XEF); type: in vivo, mouse
Procedure: (§1) Time to endpoint. Balb/c mice were implanted with 2×10^5 Colon 26 cells subcutaneously. Mice were treated with HDM201 at 40 mg/kg×3 for every 3h po on Days 12, 19 and 26 post cell implant, and the aPD-1 antibody at 5 mg/kg ip on days 12, 15, 19, and 22. End point was defined as tumor volume equal or greater than 1000 mm^3. Log Rank, p<0.05.
as §1, with “FIG. 25: Individual Tumor Growth Curves (8020 Colon 26-XEF) Individual tumor growth curves.” for “Time to endpoint.”, “equal to” for “equal”, “The horizontal dashed line indicates the tumor endpoint tumor size (1000 mm^3).” for “Log Rank, p<0.05.”
Colon 26 cells were harvested at 80-95% confluence, washed, and re-suspended in cold PBS at a concentration of 2×10^6 cells/ml. Finally, 0.2×10^6 cells in a total volume of 100 μL were implanted subcutaneously (sc) into the upper right flank of naive Balb/c mice.
For Study 8020 Colon 26-XEF, animals were randomized and enrolled onto the study when tumor volumes reached a range of 27-60 mm^3 on day 10 post cell implantation. All treatments were initiated three days later on day 13. For the PD studies, animals were randomized when the mean tumor volume reached 100˜120 mm^3.
The designs of studies 7628 Colon 26-XPD, 8063 Colon 26-XPD and 8020 Colon 26-XEF including dose and schedule for treatment groups are summarized in Tables Ex3.2 to Ex3.4. Animals were weighed on dosing day(s) and the dosing volume was adjusted to body weight to 10 ml/kg. Tumor dimensions and body weights were recorded at the time of randomization and twice weekly thereafter for the study duration. The following data were collected after each day of data collection: incidence of mortality, individual and group average body weights, and individual and group average tumor volume.
Percent treatment/control (% T/C) and percent regression (% Reg) values were calculated using the following formulas, respectively:
% Reg=100×ΔT/Tinitial if ΔT<0 […]
A Kaplan-Meier survival analysis was performed to compare differences in time to endpoint (TTE). Mice were scored as achieving tumor endpoint once tumor volume exceeded 1000 mm^3 and scored as dead (“1”). […]
The anti-tumor activity of HDM201 with aPD1 antibody targeting the PD-1/PD-L1 axis was explored in the Colon 26 murine syngeneic model (8020 Colon 26-XEF). […] Tumor growth delay was assessed as median time to endpoint using the Kaplan-Meier analysis (GraphPad v7.0).

[2] = system: p53 knock out Colon 26 clones; experiment: p53 KO Colon26 model; type: in vivo, mouse
Procedure: p53 knock out Colon 26 Clones were grown in the presence of 1 μM HDM201 and screened for p53 expression by western blot, loading 40 μg total protein/sample, using an anti p53 antibody (Cell Signaling CST #2524). p53 negative clones were identified, grown without HDM201 for 4 days and then re-treated with 1 μM HDM201 for 24 hours, along with Colon26 parental cells, to monitor p53 pathway’ response. p53 and p21 changes were monitored by western blot and an 84 gene qPCR array was used to additionally confirm pathway activity (RT2 Profiler PCR Array p53 pathway, Cat No. 330231 PAMM-027ZA Qiagen). Select clones were also submitted for RNASeq analysis.
There was no additional benefit observed when the PD-1/PD-L1 axis was blocked (FIG. 30).

COc1ncc(-c2nc3c(n2C(C)C)[C@H](c2ccc(Cl)cc2)N(c2cc(Cl)cn(C)c2=O)C3=O)c(OC)n1 [HDM201, (S)-5-(5-Chloro-1-methyl-2-oxo-1,2-dihydro-pyridin-3-yl)-6-(4-chloro-phenyl)-2-(2,4-dimethoxy-pyrimidin-5-yl)-1-isopropyl-5,6-dihydro-1H-pyrrolo[3,4-d]imidazol-4-one]
Average concentration for tumor stasis [1]: 19 ng/mL | Average concentration for tumor stasis ([1]; listed as NVP-HDM201): ≈ 19 ng/mL | animals with partial response (Colon 26 tumors; 10 mice per group): 1/10 | complete tumor regression / complete responses (CR), animals (Colon 26 tumors; 10 mice per group, HDM201 40 mg/kg 3×q3h po weekly, aPD1 Ab 5 mg/kg ip): no CR | tumor growth (Colon 26 tumors; HDM201 40 mg/kg): inhibited tumor growth | median time to endpoint (TV≥1000 mm^3), Kaplan-Meier (Colon 26 tumors; HDM201 40 mg/kg 3×q3h po weekly, aPD1 Ab 5 mg/kg ip, vehicle 23 days): 31.5 days | tumor growth inhibition [2]: not able to inhibit tumor growth
